Measurements: patent US20190119251A1, “AMIDE-SUBSTITUTED ARYLTRIAZOLE DERIVATIVES AND USES THEREOF” (BAYER PHARMA AKTIENGESELLSCHAFT, priority 2016, published 2019)

Key:
human V1a receptor = target: T1, human V1a receptor (Homo sapiens, UniProt P37288); test: Cellular in vitro assay for determining vasopressin receptor activity (V1a cell line, aequorin luminescence); assay type: cell-based; settings: for IC50: CHO cell line transfected with the human V1a receptor, agonist [Arg8]-vasopressin at EC50 concentration, read-out: IC50 hV1a; for ratio IC50 hV2/hV1a: ratio of cellular IC50 values, human V2 over human V1a
T1 construct: expressed in transfected cells; host or cells: CHO K1 (Chinese hamster ovary), also stably transfected with modified aequorin
T1 sequence (P37288 whole entry): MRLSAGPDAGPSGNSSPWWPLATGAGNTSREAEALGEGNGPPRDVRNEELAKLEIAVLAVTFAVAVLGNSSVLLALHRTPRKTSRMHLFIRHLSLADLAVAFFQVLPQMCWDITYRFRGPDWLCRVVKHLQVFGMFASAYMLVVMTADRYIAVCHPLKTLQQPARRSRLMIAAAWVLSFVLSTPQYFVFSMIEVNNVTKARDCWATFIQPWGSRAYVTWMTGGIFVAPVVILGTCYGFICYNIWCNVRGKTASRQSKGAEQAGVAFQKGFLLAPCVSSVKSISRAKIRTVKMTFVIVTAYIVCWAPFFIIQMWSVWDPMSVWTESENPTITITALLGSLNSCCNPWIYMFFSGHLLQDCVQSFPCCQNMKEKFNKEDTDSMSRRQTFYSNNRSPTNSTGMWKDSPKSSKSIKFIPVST
Experimental: (§1) B-1. Cellular In Vitro Assay for Determining Vasopressin Receptor Activity
(§2) The identification of agonists and antagonists of the V 1 a and V2 vasopressin receptors from humans, rats and dogs as well as the quantification of the activity of the compounds of the invention is carried out using recombinant cell lines. These cell lines originally derive from a hamster's ovary epithelial cell (Chinese Hamster Ovary, CHO K1, ATCC: American Type Culture Collection, Manassas, Va. 20108, USA). The test cell lines constitutively express the human, rat or dog
(§3) V1 a or V2 receptors. In case of the Gag-coupled V 1 a receptors, cells are also stably transfected with a modified form of the calcium-sensitive photoproteins aequorin (human and rat V1a) or obelin (dog V 1 a), which, after reconstitution with the cofactor coelenterazine, emit light when there are increases in free calcium concentrations [Rizzuto R, Simpson A W, Brini M, Pozzan T, Nature 358, 325-327 (1992); Illarionov B A, Bondar V S, Illarionova V A, Vysotski E S, Gene 153 (2), 273-274 (1995)]. The resulting vasopressin receptor cells react to stimulation of the recombinantly expressed V 1 a receptors by intracellular release of calcium ions, which can be quantified by the resulting photoprotein luminescence. The Gs-coupled V2 receptors are stably transfected into cell lines expressing the gene for firefly luciferase under control of a CRE-responsible promoter. Activation of V2 receptors induces the activation of the CRE-responsive promoter via cAMP increase, thereby inducing the expression of firefly luciferase. The light emitted by photoproteins of V1a cell lines as well as the light emitted by firefly luciferase of V2 cell lines corresponds to the activation or inhibition of the respective vasopressin receptor. The bioluminescence of the cell lines is detected using a suitable luminometer [Milligan G, Marshall F, Rees S, Trends in Pharmacological Sciences 17, 235-237 (1996)].
Vasopressin V1a Receptor Cell Lines:
On the day before the assay, the cells are plated out in culture medium (DMEM/F12, 2% FCS, 2 mM glutamine, 10 mM HEPES, 5 μg/ml coelenterazine) in 384-well microtiter plates and kept in a cell incubator (96% humidity, 5% v/v CO2, 37° C.). On the day of the assay, test compounds in various concentrations are placed for 10 minutes in the wells of the microtiter plate before the agonist [Arg^8]-vasopressin at EC50 concentration is added. The resulting light signal is measured immediately in a luminometer.
(§4) Table 1A below lists individual IC50 values for the compounds of the invention (including racemic mixtures as well as separated enantiomers) that were obtained from cell lines transfected with the human V1a or V2 receptor: […]

human V2 receptor = target: T2, human V2 receptor (Homo sapiens, UniProt P30518); test: Cellular in vitro assay for determining vasopressin receptor activity (V2 cell line, CRE-luciferase); assay type: cell-based; settings: CHO cell line transfected with the human V2 receptor; agonist [Arg8]-vasopressin at EC50 concentration; 3 hours incubation; read-out: IC50 hV2
T2 construct: expressed in transfected cells; host or cells: CHO K1 (Chinese hamster ovary) expressing firefly luciferase under a CRE-responsive promoter
T2 sequence (P30518 whole entry): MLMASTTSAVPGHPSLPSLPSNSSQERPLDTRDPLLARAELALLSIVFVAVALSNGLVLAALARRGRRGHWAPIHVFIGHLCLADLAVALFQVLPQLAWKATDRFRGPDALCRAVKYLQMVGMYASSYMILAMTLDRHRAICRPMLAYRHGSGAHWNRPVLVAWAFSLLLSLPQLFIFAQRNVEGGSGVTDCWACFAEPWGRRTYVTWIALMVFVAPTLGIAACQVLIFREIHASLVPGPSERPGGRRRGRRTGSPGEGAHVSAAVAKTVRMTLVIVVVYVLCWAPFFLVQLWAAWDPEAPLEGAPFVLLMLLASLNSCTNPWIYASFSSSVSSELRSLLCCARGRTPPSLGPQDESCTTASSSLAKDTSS
Experimental: as §1, §2, §3
Vasopressin V2 Receptor Cell Lines:
On the day before the assay, the cells are plated out in culture medium (DMEM/F12, 2% FCS, 2 mM glutamine, 10 mM HEPES) in 384-well microtiter plates and kept in a cell incubator (96% humidity, 5% v/v CO2, 37° C.). On the day of the assay, test compounds in various concentrations and the agonist [Arg^8]-vasopressin at EC50 concentration are added together to the wells, and plates are incubated for 3 hours in a cell incubator. Upon addition of the cell lysis reagent Triton™ and the substrate luciferin, luminescence of firefly luciferase is measured in a luminometer.
as §4

| Compound | IC50 (human V1a receptor) [nM] | ratio IC50 hV2/hV1a (human V1a receptor) | IC50 (human V2 receptor) [nM] |
| --- | --- | --- | --- |
| Cc1ccccc1-n1nc(Cn2nc(-c3ccc(Cl)cc3)n(C[C@H](O)C(F)(F)F)c2=O)nc1C(N)=O [Example 19, 3-({3-(4-Chlorophenyl)-5-oxo-4-[(2S)-3,3,3-trifluoro-2-hydroxypropyl]-4,5-dihydro-1H-1,2,4-triazol-1-yl}methyl)-1-(2-methylphenyl)-1H-1,2,4-triazole-5-carboxamide] | 0.65 | 7.5 | 4.91 |
| NC(=O)c1nc(Cn2nc(-c3ccc(Cl)cc3)n(C[C@H](O)C(F)(F)F)c2=O)nn1-c1ccccn1 [Example 11, 3-({3-(4-Chlorophenyl)-5-oxo-4-[(2S)-3,3,3-trifluoro-2-hydroxypropyl]-4,5-dihydro-1H-1,2,4-triazol-1-yl}methyl)-1-(pyridin-2-yl)-1H-1,2,4-triazole-5-carboxamide] | 115 | 1.3 | 150 |
| COC(=O)c1cccnc1-n1nc(Cn2nc(-c3ccc(Cl)cc3)n(C[C@H](O)C(F)(F)F)c2=O)nc1C(N)=O [Example 7, Methyl 2-[5-carbamoyl-3-({3-(4-chlorophenyl)-5-oxo-4-[(2S)-3,3,3-trifluoro-2-hydroxypropyl]-4,5-dihydro-1H-1,2,4-triazol-1-yl}methyl)-1H-1,2,4-triazol-1-yl]pyridine-3-carboxylate] | 54 | 6.1 | 330 |
| Cc1cnccc1-n1nc(Cn2nc(-c3ccc(Cl)cc3)n(C[C@H](O)C(F)(F)F)c2=O)nc1C(N)=O [Example 3, 3-({3-(4-Chlorophenyl)-5-oxo-4-[(2S)-3,3,3-trifluoro-2-hydroxypropyl]-4,5-dihydro-1H-1,2,4-triazol-1-yl}methyl)-1-(3-methylpyridin-4-yl)-1H-1,2,4-triazole-5-carboxamide] | 6.7 | 14.0 | 94 |
| COc1nccnc1-n1nc(Cn2nc(-c3ccc(Cl)cc3)n(C[C@H](O)C(F)(F)F)c2=O)nc1C(N)=O [Example 9, 3-({3-(4-Chlorophenyl)-5-oxo-4-[(2S)-3,3,3-trifluoro-2-hydroxypropyl]-4,5-dihydro-1H-1,2,4-triazol-1-yl}methyl)-1-(3-methoxypyrazin-2-yl)-1H-1,2,4-triazole-5-carboxamide] | 93.5 | 2.6 | 245 |
| NC(=O)c1nc(Cn2nc(-c3ccc(Cl)cc3)n(C[C@H](O)C(F)(F)F)c2=O)nn1-c1ncccn1 [Example 16, 3-({3-(4-Chlorophenyl)-5-oxo-4-[(2S)-3,3,3-trifluoro-2-hydroxypropyl]-4,5-dihydro-1H-1,2,4-triazol-1-yl}methyl)-1-(pyrimidin-2-yl)-1H-1,2,4-triazole-5-carboxamide] | 690 | 3.3 | 2250 |
| Cc1cccc(C)c1-n1nc(Cn2nc(-c3ccc(Cl)cc3)n(C[C@H](O)C(F)(F)F)c2=O)nc1C(N)=O [Example 23, 3-({3-(4-Chlorophenyl)-5-oxo-4-[(2S)-3,3,3-trifluoro-2-hydroxypropyl]-4,5-dihydro-1H-1,2,4-triazol-1-yl}methyl)-1-(2,6-dimethylphenyl)-1H-1,2,4-triazole-5-carboxamide] | 2.45 | 1.0 | 2.53 |
| NC(=O)c1ccncc1-n1nc(Cn2nc(-c3ccc(Cl)cc3)n(C[C@H](O)C(F)(F)F)c2=O)nc1C(N)=O [Example 14, 3-[5-Carbamoyl-3-({3-(4-chlorophenyl)-5-oxo-4-[(2S)-3,3,3-trifluoro-2-hydroxypropyl]-4,5-dihydro-1H-1,2,4-triazol-1-yl}methyl)-1H-1,2,4-triazol-1-yl]pyridine-4-carboxamide] | 152 | 4.2 | 638 |
